Results: US9845460B2, “Treatment of pluripotent cells” (Janssen Biotech, Inc., priority 2008, dated 2017)
“And” between values parts separate entries of the source, which are not always exact repeats. Identical values can stand only once.

Key:
[1] = tested on: human embryonic stem cells (H9 or H1 lines); experiment: Plate reader assay (MTS, OD490): proliferation of human embryonic stem cells; format: cell-based
Procedure: Maintenance of human embryonic stem cells (H9 or H1 lines) was conducted as described in Example 1. Colonies of cells were maintained in an undifferentiated, pluripotent state with passage on average every four days. Passage was performed by exposing cell cultures to a solution of collagenase (1 mg/ml; Sigma-Aldrich) for 10 to 30 minutes at 37° C. followed by gentle scraping with a pipette tip to recover cell clusters. Clusters were allowed to sediment and washed to remove residual collagenase. Cell clusters were split at a ratio of 1:3 monolayer area for routine culture or a 1:1 ratio for immediate assay. The human embryonis stem cell lines used for these examples were maintained at passage numbers less than 50 and routinely evaluated for normal karyotypic phenotype as well as absence of mycoplasm contamination.
Cell clusters used in assay were evenly resuspended in normal culture medium and plated into MATRIGEL-coated 96-well Packard VIEWPLATES (PerkinElmer) in volumes of 100 μl/well. MEF conditioned medium supplemented with 8 ng/ml bFGF) was used for initial plating and recovery. Daily feeding was conducted by aspirating spent culture medium from each well and replacing with an equal volume of fresh medium. Plates were maintained at 37° C. in a humidified box, 5% CO2 throughout the duration of assay.
Primary screening assays were initiated by aspirating culture medium from each well followed by three washes in PBS to remove residual growth factors and serum. Test volumes of 80-100 μl per well were added back containing DMEM:F12 base medium (Invitrogen) supplemented with 0.5% FCS (HyClone) and 100 ng/ml activin A (R&D Biosystems) and 10 μM test compound. […]
On day 4 of assay, […] of MTS (Promega) was added to each well and plates were incubated at 37° C. for 1.5 to 4 hours. Densitometric readings at OD490 were determined using a Molecular Devices spectrophotometer plate reader. Average readings for replicate sets were calculated along with standard deviation and coefficient of variation. […]

[2] = tested on: Sox17; experiment: High content screening assay: Sox17 protein expression (total intensity); format: cell-based, human
Procedure: (§1) Maintenance of human embryonic stem cells (H9 line) was conducted as described in Example 1. Colonies of cells were maintained in an undifferentiated, pluripotent state with passage on average every four days. Passage was performed by exposing cell cultures to a solution of collagenase (1 mg/ml; Sigma-Aldrich) for 10 to 30 minutes at 37° C. followed by gentle scraping with a pipette tip to recover cell clusters. Clusters were allowed to sediment by gravity, followed by washing to remove residual collagenase. Cell clusters were split at a 1:3 ratio for routine maintenance culture or a 1:1 ratio for immediate assay. The human embryonic stem cell lines used were maintained at passage numbers less than passage 50 and routinely evaluated for normal karyotypic phenotype and absence of mycoplasma contamination.
(§2) Cell clusters used in the assay were evenly resuspended in normal culture medium and plated onto MATRIGEL-coated 96-well Packard VIEWPLATES (PerkinElmer) in volumes of 100 μl/well. MEF conditioned medium supplemented with 8 ng/ml bFGF was used for initial plating and recovery. Daily feeding was conducted by aspirating spent culture medium from each well and replacing with an equal volume of fresh medium. Plates were maintained at 37° C., 5% CO2 in a humidified box throughout the duration of assay. […]

[3] = tested on: HNF-3beta; experiment: High content screening assay: HNF-3beta protein expression (total intensity); format: cell-based, human
Procedure: as §1, §2

[4] = tested on: cells expressing pluripotency markers; experiment: Viability (MTS, OD 490 nm) of cells expressing pluripotency markers treated with GSK-3B inhibitors; format: cell-based, human; settings: for Raw data (duplicate): optical density at 490 nm (MTS), single wells
Procedure: Derivation and maintenance of cells expressing pluripotency makers was conducted as has been described in Example 2. Cells were grown in DMEM:F12 supplemented with 2% FCS (Invitrogen), 100 ng/ml Activin A, 20 ng/ml Wnt-3a, and 50 ng/ml IGF (R&D Biosystems). Cells were seeded at a density of 10,000 cells/cm^2 on Falcon polystyrene flasks and grown in monolayer culture at 37° C., 5% CO2, low oxygen. After reaching 60-70% confluence, cells were passed by washing the monolayer with PBS and incubating with TrypLE (Invitrogen) for 3-5 minutes to allow detachment and single cell dispersal.
Screening was conducted using test compounds from a proprietary library of small molecules selected for their ability to inhibit GSK-3B enzyme activity. Compounds from this library were made available as 1 mM stocks, in a 96-well plate format in 50 mM HEPES, 30% DMSO. For assay, cells expressing pluripotency markers were washed, counted, and plated in normal culture medium at a seeding density of 20,000 cells per well in 96-well clear-bottom, dark-well plates (Costar). This seeding density was previously determined to yield optimal monolayer formation in overnight culture. On the following day, culture medium was removed, cell monolayers were rinsed three times with PBS, and test compounds were added to the wells in 80 μl aliquots, each diluted into assay medium at a final assay concentration of 10 μM. On day 2 of the assay, medium was removed from each well and replaced with a fresh aliquot of test compounds diluted into assay medium. Assay medium on days 1 and 2 of culture consisted of DMEM:F12 supplemented with 0.5% FCS and 100 ng/ml Activin A. On days 3 and 4 of culture, medium was removed from each well and replaced with DMEM:F12 supplemented with 2% FCS and 100 ng/ml Activin A (no test compound). On day 4 of assay, 15 μl of MTS (Promega) was added to each well and plates were incubated at 37° C. for 1.5 to 4 hours prior to reading optical density at 490 nm on a SpectraMax (Molecular Devices) instrument. Statistical measures consisting of mean, standard deviation, and coefficient of variation were calculated for each duplicate set. Toxicity was calculated for each test well relative to a positive control (wells treated with Activin A and Wnt3a on days 1 and 2 of culture).
A larger proportion of the compounds have minimal or no measurable toxicity in this cell-based assay.
A small panel of select compounds was repeat tested over a narrow dose titration range, again using cells expressing pluripotency markers in a similar assay as described above.

[5] = tested on: human embryonic stem cells (H9 line); experiment: High content screening assay: total cell number (proliferative response); format: cell-based
Procedure: as §1
Cell clusters used in the assay were evenly resuspended in normal culture medium and plated onto MATRIGEL-coated 96-well Packard VIEWPLATES (PerkinElmer) in volumes of 100 μl/well. MEF conditioned medium supplemented with 8 ng/ml bFGF was used for initial plating and recovery. Daily feeding was conducted by aspirating spent culture medium from each well and replacing with an equal volume of fresh medium. Plates were maintained at 37° C., 5% CO2 in a humidified box throughout the duration of assay.
Screening was conducted using test compounds from a proprietary library of small molecules selected for their ability to inhibit GSK-3B enzyme activity. Compounds from this library were made available as 1 mM stocks, in a 96-well plate format in 50 mM HEPES, 30% DMSO. Screening compounds were tested in triplicate or duplicate sets. Primary screening assays were initiated by aspirating culture medium from each well followed by three washes in PBS to remove residual growth factors and serum. Test volumes of 80 to 100 μl per well were added back containing DMEM:F12 base medium (Invitrogen) supplemented with 0.5% FCS (HyClone) and 100 ng/ml activin A (R&D Biosystems) plus […] test compound. Positive control wells contained the same base medium, substituting 10-20 ng/ml Wnt3a (R&D Biosystems) for the test compound. Negative control wells contained base medium with 0.5% FCS and activin A alone (AA only) or alternatively, 0.5% FCS without activin A or Wnt3a (no treatment). Wells were aspirated and fed again with identical solutions on day 2 of assay. On days 3 and 4, all assay wells were aspirated and converted to DMEM:F12 supplemented with 2% FCS and 100 ng/ml activin A (without test compound or Wnt3a); parallel negative control wells were maintained in DMEM:F12 base medium with 2% FCS and activin A (AA only) or alternatively, 2% FCS without activin A (no treatment). […]

[6] = total intensity normalized to Wnt3a/Activin A positive control

## OCCC#Cc1nc(-c2ccc(F)cc2)c(-c2ccncc2)n1CCCc1ccccc1 [RWJ67657]
[1]; 10 μM test compound, MTS OD490 on day 4, relative to Activin A/Wnt3a positive control
  % Control Value: 84.7%
[1]; mean of replicate raw plate-reader readings (MTS, OD490), proliferation of human embryonic stem cells
  Average (of Raw Data): 1.2242
[1]; relative to the AA/Wnt3a/DMSO positive control of the same plate (= 100.0)
  % Control: 84.7%
[2]; total intensity
  SOX-17 Expression Total Intensity: 324450000
[2]; [6]
  SOX-17 Expression Fold over Wnt 3a/AA control: 0.3336 Fold over Wnt 3a/AA control
[3]; total intensity
  HNF-3b Expression Total Intensity: 269025000
[3]; [6]
  HNF-3b Expression Fold over Wnt 3a/AA control: 0.2428 Fold over Wnt 3a/AA control
[4]; MTS viability readout, average of duplicate raw data
  Average: 0.644
[4]; MTS viability readout, first of duplicate wells
  Raw data (duplicate), first value: 0.629
[4]; MTS viability readout, second of duplicate wells
  Raw data (duplicate), second value: 0.659
[4]; cmpd conc 2.5 uM, mean optical density at 490 nm (MTS) of duplicate
  Average: 0.7971
[4]; cmpd conc 2.5 uM
  Raw data (duplicate): 0.8041 and 0.7900
[4]; cmpd conc 2.5 uM, viability relative to AA + Wnt3a positive control, MTS day 4
  % Control: 93.2%
[4]; cmpd conc 5 uM, mean optical density at 490 nm (MTS) of duplicate
  Average: 0.8183
[4]; cmpd conc 5 uM
  Raw data (duplicate): 0.8047 and 0.8319
[4]; cmpd conc 5 uM, viability relative to AA + Wnt3a positive control, MTS day 4
  % Control: 96.2%
[4]; cmpd conc 10 uM, mean optical density at 490 nm (MTS) of duplicate
  Average: 0.6052
[4]; cmpd conc 10 uM
  Raw data (duplicate): 0.6195 and 0.5908
[4]; cmpd conc 10 uM, viability relative to AA + Wnt3a positive control, MTS day 4
  % Control: 66.5%
[4]; viability as % of control
  % Control: 77.7%
[5]; total cell number in wells stained for HNF-3b
  Proliferative Response Total cells (HNF-3b Expression set): 6058
[5]; total cell number in wells stained for SOX-17
  Proliferative Response Total cells (SOX-17 Expression set): 6376
[5]; total cells normalized to Wnt3a/Activin A positive control, wells stained for HNF-3b
  Proliferative Response Fold over Wnt 3a/AA control (HNF-3b Expression set): 0.3852 Fold over Wnt 3a/AA control
[5]; total cells normalized to Wnt3a/Activin A positive control, wells stained for SOX-17
  Proliferative Response Fold over Wnt 3a/AA control (SOX-17 Expression set): 0.4162 Fold over Wnt 3a/AA control

B1: AA only: control wells with base medium, FCS and activin A alone (protein, UniProt P08476 311-426, looked up)
Inhibin beta A chain: GLECDGKVNICCKKQFFVSFKDIGWNDWIIAPSGYHANYCEGECPSHIAGTSGSSLSFHSTVINHYRMRGHSPFANLKSCCVPTKLRPMSMLYYDDGQNIIKKDIQNMIVEECGCS
[4]; control wells without test compound, mean optical density at 490 nm (MTS)
  Average: 0.8889 and 0.7861
[4]; control wells without test compound
  Raw data (duplicate): 0.8732 and 0.9046 and 0.7674 and 0.8047
[4]; control wells without test compound, relative to AA + Wnt3a
  % Control: 106.0% and 98.3%
